{"source": "patent US20090169478A1", "about": "“In Vivo Imaging and Therapy with Magnetic Nanoparticle Conjugates” (priority 2005, published 2009)", "key": {"rats": {"test_system": "rats", "details": "rat, in vivo, iv, 250 mg/kg; cited from earlier work"}, "[1]": {"test_system": "MDA-MB-435S.luc tumor bearing mice", "test": "Treatment of tumor-xenografted mice (Example 29)", "assay_type": "in vivo, mouse", "details": "for tumor weights at necropsy: tail vein injections at 3, 4 and 5 weeks post-xenograft, 28 days after the start of treatment", "text": "Mice were sacrificed and necropsied 6 weeks post-xenografts. […] Bodyweights, liver weights, and gonadal weights remained stable during all treatments. The breast cancer tumors and metastases were specifically targeted and destroyed by LHRH-conjugated SPIONs carrying a toxin (hecate). The same particles may be used for simultaneous treatment and imaging, e.g., for directly monitoring treatment response in cancer patients."}, "[2]": {"test_system": "MDA-MB-435S.luc breast cancer cells", "test": "Effect of spacer molecule on cellular iron uptake (Example 27)", "assay_type": "cell-based, human", "details": "iron incubation 1 mg/ml, 3 hours; for iron accumulation in the breast cancer cells in the presence of LHRH: free LHRH present", "protocol": "The effect of a spacer molecule on cellular uptake was tested in vitro on MDA-MB-435S.luc breast cancer cells, which express LHRH receptors. Iron incubation was conducted at 1 mg/ml for different conditions for 3 hours. Accumulation in the breast cancer cells was 82.3±25 pg/cell for SPIONs, 165±16 pg/cell for LHRH−SPIONs, and 223±16 pg/cell with LHRH-Glu-SPION. […] These observations support our hypothesis that iron uptake was driven by receptor-mediated endocytosis."}, "[3]": {"test_system": "MDA-MB-435S.luc xenograft-bearing mouse", "details": "250 mg/kg tail vein, 20 hours, 6 mice per group", "protocol": "The mice were euthanized 20 hours after the injections; and their tumors, lungs, liver, heart, kidney, pancreas, spleen, and gonads were collected. Portions of the organs and tumors were embedded in paraffin and tested for iron using Prussian blue staining."}, "[4]": {"test_system": "tumor-xenograft-bearing mice", "details": "2, 10, 30 and 60 days after injection", "protocol": "Pharmacokinetics of iron nanoparticles. To determine the pharmacokinetic profile of SPIONs and their conjugates, 4 groups of tumor-xenograft-bearing mice (n=10) are injected with the various concentrations of conjugated SPIONs as determined above. A fifth group serves as saline control. The mice are housed for 2, 10, 30, and 60 days after injection, and are then sacrificed to determine iron content in peripheral tissues. This experiment uses 50 female nude mice, and will establish the excretion profile of LHRH−SPIONs over a period of 60 days."}, "tumor-free mice": {"test_system": "tumor-free mice", "details": "mouse, in vivo, iv", "protocol": "(§1) Targeting Human Breast Cancer Xenograft and their Metastases with LHRH−SPIONs in vivo. To evaluate the distribution of LHRH−SPIONs and unconjugated SPIONs in vivo, female nude mice with human breast MDA-MB-435S.luc xenograft as described above were injected intravenously with 250 mg/kg LHRH-SPIONs or with unconjugated SPIONs, 35 days after tumor inoculation. The mice were sacrificed 20 h after injection, and the organs and tumors were collected, weighed and analyzed for iron and luciferase. Portions of the organs and tumors were homogenized and their iron content determined spectrophotometrically after reaction with Prussian blue, while other portions were analyzed after fixation by transmission electron microscopy.\n(§2) Statistical analyses were conducted on raw data by ANOVA. We obtained the ranks of the data, and then conducted a Kruskal-Wallis test. Differences were considered significant at the P<0.05 level. Rank data and variance stabilizing transformations were included."}, "[5]": {"test_system": "Chinese Hamster Ovary cells; mouse Sertoli cells", "test": "In vitro uptake in cell lines that do not express the appropriate receptors", "assay_type": "cell-based", "details": "listed as LHRH−SPIONs", "protocol": "(§3) LHRH−SPIONs and βCG/LH-SPIONs were tested on breast cancer cells MDA-MB-435S, on Chinese Hamster Ovary cells, on rat LH-receptor-transfected Chinese Hamster Ovary cells, and on mouse Sertoli cells. Experiments were conducted in the presence of LHRH, βCG, or neither. […] In addition, we observed that co-incubation with the free peptide ligands blocked the receptors that otherwise enabled the ligand-conjugated SPIONs to enter cells through receptor-mediated endocytosis. The uptake was then primarily via phagocytosis or pinocytosis at a low rate, similar to that for unconjugated SPIONs. The observed uptake was specific; the quantity of iron nanoparticles within the cells was substantially higher for receptor-mediated uptake."}, "[6]": {"test": "Surface charge of nanoparticles", "assay_type": "physicochemical", "text": "The magnetic nanoparticle preferably comprises primarily Fe3O4, rather than the Fe2O3 that has been used for most prior magnetic nanoparticles. The Fe3O4 particle surface contains amine groups that initially prevent agglomeration, eliminating the need for a coating such as a dextran or other intermediate coatings such as have been used in most prior magnetic nanoparticles. […] The only “coating” that need be used is the targeting agent itself, one with specificity for the target cells (or a combination of targeting agent and toxin or drug). The targeting agent, and the optional toxin or drug are covalently linked to the nanoparticle via amide linkages formed by reaction with the amine groups on the particles. The targeting agent may, for example, be a hormone, ligand, or antibody, or a fragment thereof to assist in selectively directing the particles to the cells of interest and facilitating their intracellular up-take and accumulation. The optional toxin or drug may, for example, be a lytic peptide, other peptide toxin, or other toxin or drug. Our studies have shown that reducing the amount of ligand/coating on the nanoparticles increases macrophage recognition and incorporation. By optionally distancing the ligand from the nanoparticle surface through a spacer molecule, ligand specificity may be retained while increasing cellular uptake. […]"}, "[7]": {"test_system": "MDA-MB-435S.luc xenograft-bearing mouse", "test": "Iron content of tissue homogenates, tumor and kidney (Example 9)", "assay_type": "in vivo", "details": "250 mg/kg tail vein, 20 hours", "protocol": "Portions of the tissue samples from Example 8 were homogenized, and iron content was determined in calorimetric assays. The amounts of accumulated iron per gram total organ mass could thus be determined. […] When nanoparticles alone were injected, the iron content in tumors was only about 4%."}, "[8]": {"test_system": "mice bearing the MDA-MB-435S.luc tumors", "details": "after sequential injections", "text": "See FIGS. 3(a) through (d), showing photographs of Prussian Blue-stained sections from lungs of mice bearing the MDA-MB-435S.luc tumors. FIG. 3(a) depicts a saline-injected control. FIG. 3(b) depicts injection with unconjugated SPIONs. FIGS. 3 (c) and (d) depict injection with conjugated LHRH−SPIONs."}, "human macrophages": {"test_system": "human macrophages", "test": "In vitro macrophage uptake of nanoparticles (Example 26)", "assay_type": "cell-based", "details": "iron concentration of 20 μg/mL"}, "[9]": {"test_system": "male nude mice bearing tumors from human prostate cancer line PC-3.luc", "details": "mouse, in vivo", "source_text": "This experiment employed male nude mice bearing tumors from human prostate cancer line PC-3.luc (with luciferase reporter)."}, "[10]": {"test_system": "breast cancer cells MDA-MB-435S", "test": "In vitro uptake of ligand-conjugated SPIONs (Example 10)", "assay_type": "cell-based, human", "details": "MDA-MB-435S cells, no free ligand", "protocol": "as §3"}, "[11]": {"test_system": "MCF-7, MDA-MB-435S.luc and TM4 cell lines", "test": "In vitro toxicity of constructs on three cell lines, cell line not given", "assay_type": "cell-based", "details": "FIG. 4", "text": "FIG. 4 depicts toxicity measurements of different constructs on three cell lines.\nPancreatic, prostate, breast, and lung cancers may be targeted by LHRH, linked to a toxin or drug such as a lytic peptide and to a SPION. In one study we tested the use of LHRH−SPIONs conjugated to a toxin or drug for both treatment and imaging of tumors and metastases. A particle with a ligand and a toxin (drug) may be made in at least three different configurations: ligand-toxin(drug)-SPION, ligand-SPION-toxin(drug), or toxin(drug)-ligand-SPION. […] (The potential construct SPION-LHRH-Hecate was not tested in these experiments.) See FIG. 4. […] Based on the results reported above, the introduction of a spacer is expected to improve ligand-receptor interaction; and, in the case of a lytic peptide, to improve the peptide-membrane interaction. The spacer may also improve plasma stability of the particles."}, "[12]": {"test_system": "female nude mice with human breast MDA-MB-435S.luc xenograft", "details": "mouse, in vivo", "protocol": "as §1\nThe design of this cancer model was such that all tumor cells expressed luciferase, meaning that the presence of luciferase was inherently synonymous with the presence of cancer cells. By contrast, the presence of iron was not inherently synonymous with the presence of cancer cells. The goal of this experiment was to test the efficacy of the novel system at specifically delivering iron to cancer cells.\nas §2"}}, "note": "“Also recorded” adds a separate entry of the source. Non-standard residues stand in square brackets, D forms with d. Residues, ends and D or L forms follow the SMILES beside them. No end group written: not given here. pGlu = O=C1CC[C@@H](C(=O)O)N1"}
{"compound": "iron oxide nanoparticles", "values": [{"measurement": "adverse effects", "setting": "rats", "result": "no adverse effects"}]}
{"compound": "CC(C)C[C@H](NC(=O)[C@H](C)NC(=O)[C@H](CCCCN)NC(=O)[C@H](CCCCN)NC(=O)[C@H](CC(C)C)NC(=O)[C@H](C)NC(=O)[C@H](CCCCN)NC(=O)[C@H](CCCCN)NC(=O)[C@H](CC(C)C)NC(=O)[C@H](CCCCN)NC(=O)[C@H](CCCCN)NC(=O)[C@H](CC(C)C)NC(=O)[C@H](C)NC(=O)[C@H](CCCCN)NC(=O)[C@H](CCCCN)NC(=O)[C@H](CC(C)C)NC(=O)[C@H](C)NC(=O)[C@H](CCCCN)NC(=O)[C@H](CC(C)C)NC(=O)[C@H](C)NC(=O)[C@H](CC(C)C)NC(=O)[C@H](C)NC(=O)[C@H](Cc1ccccc1)NC(=O)CNC(=O)[C@@H]1CCCN1C(=O)[C@H](CCCNC(=N)N)NC(=O)[C@H](CC(C)C)NC(=O)CNC(=O)[C@H](Cc1ccc(O)cc1)NC(=O)[C@H](CO)NC(=O)[C@H](Cc1c[nH]c2ccccc12)NC(=O)[C@H](Cc1c[nH]cn1)NC(=O)[C@@H]1CCC(=O)N1)C(=O)O", "note": "[LHRH-Hecate] ([pGlu]HWSYGLRPGFALALKALKKALKKLKKALKKAL-OH; C-terminus assumed)", "values": [{"measurement": "change of tumor volumes (and tumor weights)", "setting": "[1]; during and after treatment", "result": "arrested at the start of treatment and then diminished significantly; also recorded: decreased"}, {"measurement": "lymph node metastases, assayed by luciferase activity at necropsy", "setting": "[1]; mouse, in vivo", "result": "destroyed"}, {"measurement": "tumor weights at necropsy", "setting": "[1]", "result": "0.07 ± 0.04", "unit": "g"}]}
{"compound": "LHRH-Glu-SPION: LHRH bound to SPION through a glutaric acid spacer (Examples 5 and 7) (QHWSYGLRPG; ends and bridges not checked; also: bound to SPION through a glutaric acid spacer, site not given here; UniProt P01148 24-33, looked up)", "values": [{"measurement": "iron accumulation in the breast cancer cells", "setting": "[2]", "result": "223±16", "unit": "pg/cell"}, {"measurement": "iron accumulation in the breast cancer cells in the presence of LHRH", "setting": "[2]", "result": "123±25", "unit": "pg/cell"}]}
{"compound": "LHRH−SPION: Fe3O4 magnetite nanoparticles covalently bound to LHRH by carbodiimide reaction (Example 3)", "values": [{"measurement": "tumors testing positive for iron (Prussian blue staining)", "setting": "[3]", "result": "Four of six"}, {"measurement": "predicted depletion of iron from tumor and metastatic tissues", "setting": "[4]", "result": "slower depletion"}, {"measurement": "predicted iron content in kidney, liver and spleen over time", "setting": "[4]", "result": "decrease rather rapidly with time"}, {"measurement": "tumor weights at necropsy", "setting": "[1]", "result": "0.24 ± 0.09", "unit": "g"}, {"measurement": "iron accumulation in the breast cancer cells", "setting": "[2]", "result": "165±16", "unit": "pg/cell"}, {"measurement": "iron accumulation in the breast cancer cells in the presence of LHRH", "setting": "[2]", "result": "106±26", "unit": "pg/cell"}, {"measurement": "percentage of iron accumulating in lung", "setting": "tumor-free mice", "result": 0.9, "unit": "%"}, {"measurement": "ligand-mediated uptake in cell lines that did not express the appropriate receptors", "setting": "[5]", "result": "did not bind and accumulate; also recorded: substantially lower"}, {"measurement": "charge of nanoparticles (in words)", "setting": "[6]", "result": "almost neutral"}, {"measurement": "iron located in the tumor (estimate of iron content in tumor and kidney)", "setting": "[7]", "result": "up to 70%"}, {"measurement": "retention of nanoparticles inside the target cells", "setting": "[8]", "result": "at least four weeks"}, {"measurement": "difference in macrophage uptake, SPIONs versus LHRH-SPIONs", "setting": "human macrophages", "result": "thirteen-fold"}, {"measurement": "fraction taken up by macrophages", "setting": "human macrophages", "result": "about 5%"}, {"measurement": "accumulation in tumor tissue compared to normal (kidney) tissue", "setting": "[9]", "result": "preferentially accumulate in tumor tissue"}, {"measurement": "observed uptake", "setting": "[10]", "result": 452, "unit": "pg Fe/cell"}, {"measurement": "toxicity", "setting": "[11]", "result": "not toxic"}, {"measurement": "fraction of injected particles accumulated in primary tumors and metastases", "setting": "[12]", "result": "up to 60%"}, {"measurement": "relation of level accumulated in the lungs to metastatic load (luciferase activity)", "setting": "[12]", "result": "linear function of the metastatic load"}, {"measurement": "percentage of iron accumulating in kidney", "setting": "[12]; iv, 250 mg/kg", "result": 3.3, "unit": "%"}, {"measurement": "percentage of iron accumulating in lung", "setting": "[12]; iv, 250 mg/kg", "result": 22.2, "unit": "%"}]}
